Experimental data from PMC6804443 (Acta Pharmaceutica Sinica. B, 2019).
Like-named read-outs stand apart in the source and are kept apart here.

What was measured:
[1] = biological target: T1, OAT3 (Homo sapiens, UniProt Q8TCC7); experiment: Reported in vitro interaction with OAT3; assay type: in vitro ADME; conditions: estimated from reported Cmax, fu-p and literature potency
T1 sequence (Q8TCC7 1-542): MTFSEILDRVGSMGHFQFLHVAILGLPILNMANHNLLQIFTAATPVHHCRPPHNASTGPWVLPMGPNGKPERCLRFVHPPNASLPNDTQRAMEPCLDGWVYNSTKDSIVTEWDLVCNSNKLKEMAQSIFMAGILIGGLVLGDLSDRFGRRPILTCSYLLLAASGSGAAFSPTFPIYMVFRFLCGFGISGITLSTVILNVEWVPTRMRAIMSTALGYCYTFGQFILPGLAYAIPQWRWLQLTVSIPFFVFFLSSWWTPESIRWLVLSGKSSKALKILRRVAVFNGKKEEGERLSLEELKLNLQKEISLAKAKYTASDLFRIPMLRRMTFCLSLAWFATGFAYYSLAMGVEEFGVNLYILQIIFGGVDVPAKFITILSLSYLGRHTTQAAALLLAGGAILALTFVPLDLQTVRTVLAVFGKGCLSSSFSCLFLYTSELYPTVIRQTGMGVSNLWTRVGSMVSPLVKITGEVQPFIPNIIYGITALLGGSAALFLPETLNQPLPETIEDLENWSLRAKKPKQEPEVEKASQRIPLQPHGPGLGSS

[2] = biological target: T2, OATP1B3 (Homo sapiens, UniProt Q9NPD5); conditions: IC50, OATP1B3 [X10], mean ± SD (n = 3)
T2 sequence (Q9NPD5 1-702): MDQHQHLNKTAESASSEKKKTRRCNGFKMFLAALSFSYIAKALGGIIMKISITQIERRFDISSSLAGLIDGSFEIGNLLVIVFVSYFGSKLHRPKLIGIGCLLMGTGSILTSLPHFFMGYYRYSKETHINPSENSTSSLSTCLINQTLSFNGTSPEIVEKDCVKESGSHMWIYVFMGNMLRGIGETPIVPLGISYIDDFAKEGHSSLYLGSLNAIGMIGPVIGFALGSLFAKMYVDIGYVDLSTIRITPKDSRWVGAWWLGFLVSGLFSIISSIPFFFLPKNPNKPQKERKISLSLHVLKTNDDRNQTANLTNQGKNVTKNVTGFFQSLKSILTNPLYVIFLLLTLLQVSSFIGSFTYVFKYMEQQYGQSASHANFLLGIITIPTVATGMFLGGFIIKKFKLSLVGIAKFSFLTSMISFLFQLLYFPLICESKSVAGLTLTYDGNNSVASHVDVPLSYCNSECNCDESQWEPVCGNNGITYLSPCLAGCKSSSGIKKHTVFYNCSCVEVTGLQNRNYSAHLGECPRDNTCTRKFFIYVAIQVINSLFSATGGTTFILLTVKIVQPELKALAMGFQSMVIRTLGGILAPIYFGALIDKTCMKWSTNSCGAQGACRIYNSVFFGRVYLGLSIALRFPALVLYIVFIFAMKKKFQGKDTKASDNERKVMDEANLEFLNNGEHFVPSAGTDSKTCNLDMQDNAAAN

[3] = biological target: T2, OATP1B3; conditions: for Inhibition DDI index, OATP1B3: antibiotic as perpetrator, salvianolic acid B (X10) as victim, (Cmax × fu-p × R)/IC50
[4] = biological target: T2, OATP1B3; experiment: in vitro
[5] = test system: ALDH; assay type: in vitro ADME; conditions: human, pooled human liver cytosol
[6] = biological target: T3, OAT2 (Homo sapiens, UniProt Q9Y694); experiment: OAT2 inhibition by antibiotics, transfected HEK293 cells, tanshinol as substrate; assay type: in vitro ADME; conditions: for inhibition at 1000 µM: HEK293, read-out: Inhibition of OAT2
T3 sequence (Q9Y694 1-546 isoform Q9Y694-2): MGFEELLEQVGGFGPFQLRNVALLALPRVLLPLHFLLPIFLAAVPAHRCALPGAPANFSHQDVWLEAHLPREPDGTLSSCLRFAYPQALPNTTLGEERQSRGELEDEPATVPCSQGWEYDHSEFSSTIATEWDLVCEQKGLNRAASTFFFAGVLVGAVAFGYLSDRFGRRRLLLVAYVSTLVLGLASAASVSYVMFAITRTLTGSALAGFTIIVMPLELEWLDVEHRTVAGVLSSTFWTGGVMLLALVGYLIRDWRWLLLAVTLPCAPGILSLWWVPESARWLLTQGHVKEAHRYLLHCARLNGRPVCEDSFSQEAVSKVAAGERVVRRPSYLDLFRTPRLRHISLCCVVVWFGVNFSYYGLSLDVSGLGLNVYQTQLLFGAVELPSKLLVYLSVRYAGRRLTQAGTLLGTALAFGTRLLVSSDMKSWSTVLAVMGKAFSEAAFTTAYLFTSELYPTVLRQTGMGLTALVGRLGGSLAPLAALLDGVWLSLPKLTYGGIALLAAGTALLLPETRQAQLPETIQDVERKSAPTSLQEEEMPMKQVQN

[7] = biological target: T4, OAT1 (Homo sapiens, UniProt Q4U2R8); experiment: OAT1 inhibition by antibiotics, transfected HEK293 cells, tanshinol as substrate; conditions: for Inhibition DDI index, OAT1: antibiotic as perpetrator, tanshinol (X8) as victim, (Cmax × fu-p × R)/IC50; for inhibition at 1000 μmol/L: human
T4 sequence (Q4U2R8 1-563): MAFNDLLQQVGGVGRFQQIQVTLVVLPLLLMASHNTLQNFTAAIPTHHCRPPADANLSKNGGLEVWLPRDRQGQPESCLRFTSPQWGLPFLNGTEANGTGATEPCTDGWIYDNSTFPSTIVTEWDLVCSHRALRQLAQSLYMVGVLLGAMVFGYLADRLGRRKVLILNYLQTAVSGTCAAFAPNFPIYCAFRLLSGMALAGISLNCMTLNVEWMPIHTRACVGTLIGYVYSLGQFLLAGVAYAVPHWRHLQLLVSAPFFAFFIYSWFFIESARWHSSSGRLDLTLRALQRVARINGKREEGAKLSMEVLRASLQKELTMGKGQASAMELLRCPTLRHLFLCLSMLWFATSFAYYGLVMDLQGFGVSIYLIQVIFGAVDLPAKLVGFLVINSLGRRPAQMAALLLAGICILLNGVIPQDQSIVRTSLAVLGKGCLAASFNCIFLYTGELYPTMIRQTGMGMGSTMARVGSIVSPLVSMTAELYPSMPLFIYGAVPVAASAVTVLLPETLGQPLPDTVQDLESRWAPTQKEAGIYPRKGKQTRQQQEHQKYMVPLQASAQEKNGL

[8] = biological target: T5, UGT2B15 (Homo sapiens, UniProt P54855); assay type: in vitro ADME; conditions: for inhibition at 1000 μmol/L: human, cDNA-expressed UGT2B15
T5 sequence (P54855 24-530): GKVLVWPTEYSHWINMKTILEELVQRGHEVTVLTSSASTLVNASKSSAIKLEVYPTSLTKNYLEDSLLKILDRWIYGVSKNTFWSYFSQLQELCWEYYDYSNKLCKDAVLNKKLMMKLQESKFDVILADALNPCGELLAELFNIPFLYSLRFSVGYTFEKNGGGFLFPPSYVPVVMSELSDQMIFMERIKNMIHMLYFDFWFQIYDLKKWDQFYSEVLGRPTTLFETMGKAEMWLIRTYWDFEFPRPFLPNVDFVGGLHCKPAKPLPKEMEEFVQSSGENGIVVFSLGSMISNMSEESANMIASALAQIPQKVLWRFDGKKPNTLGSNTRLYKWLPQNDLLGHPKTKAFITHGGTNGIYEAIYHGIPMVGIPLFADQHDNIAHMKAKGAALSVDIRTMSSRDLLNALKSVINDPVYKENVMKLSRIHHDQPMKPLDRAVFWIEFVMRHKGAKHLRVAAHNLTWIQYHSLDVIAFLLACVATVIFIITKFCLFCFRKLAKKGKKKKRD

[9] = assay type: in vivo; conditions: human; XueBiJing at label dose 100 mL
[10] = cited from earlier work; for fu-p (unbound fraction in plasma): human plasma; for Cmax / VSS / t1/2 / Major elimination route / fe-U (fraction of dose excreted unchanged into urine): human; for Cmax / VSS / t1/2: XueBiJing 100 mL via 75-min intravenous infusion
[11] = test system: P450 enzymes, UGTs, SULTs, OATP1B1/1B3, OAT1/3, OCT2, MATE1/2-K, MDR1, BCRP; conditions: cited from earlier work
[12] = XueBiJing compounds, cited from earlier work; for LogD(7.4): pH 7.4
[13] = XueBiJing compounds; cited from earlier work
[14] = biological target: T4, OAT1; experiment: OAT1 inhibition by XueBiJing compounds, transfected HEK293 cells [PAH]; assay type: in vitro ADME
[15] = biological target: T3, OAT2; assay type: in vitro ADME
[16] = test system: CYP2B6; experiment: CYP2B6 induction by XueBiJing compounds in cryopreserved human hepatocytes; assay type: in vitro ADME; conditions: higher concentrations; range over the named compounds and enzymes
[17] = test system: CYP3A4; conditions: higher concentrations; range over the named compounds and enzymes

IC50 [2] [µM]	Inhibition DDI index, OATP1B3 [3]	inhibition at 1000 μmol/L [4] [%]	IC50 [7] [µM]	Inhibition DDI index, OAT1 [7]	inhibition at 1000 μmol/L [7] [%]	Compound	fu-p (unbound fraction in plasma) [10] [%]	Cmax [10] [nM]	VSS [10] [L/kg]	t1/2 [10] [h]	Major elimination route [10]	Related metabolism and transport data (substrate status) [11]	pKa [12]	LogD(7.4) [12]	Membrane permeability [13]	other results
53 ± 20	1.70	> 90				Cn1nnnc1SCC1=C(C(=O)O)N2C(=O)[C@@H](NC(=O)[C@H](O)c3ccccc3)[C@H]2SC1 [A11, cefamandole]										DDI index, inhibiting OAT3 [1]: ≥ 1.0
11 ± 2	4.64	> 90	99 ± 31	0.52	63 to 88	Cc1onc(-c2ccccc2)c1C(=O)N[C@@H]1C(=O)N2[C@@H]1SC(C)(C)[C@@H]2C(=O)O [A17, oxacillin]										IC50 [5]: 465 ± 72 µM; inhibition at 1000 μmol/L [5]: 56 to 88%; IC50 [6]: 467 ± 97 µM; inhibition at 1000 µM [6]: 60 to 84%; Inhibition DDI index, OAT2 ([6]; antibiotic as perpetrator, tanshinol (X8) as victim, (Cmax × fu-p × R)/IC50): 0.11
26 ± 9	1.07	> 90	173 ± 27	0.16	≥ 90	Cc1onc(-c2c(F)cccc2Cl)c1C(=O)N[C@@H]1C(=O)N2[C@@H]1SC(C)(C)[C@@H]2C(=O)O [A19, flucloxacillin]										IC50 [8]: 336 ± 83 µM; inhibition at 1000 μmol/L [8]: 60 to 88%; IC50 [5]: 45 ± 6 µM; inhibition at 1000 μmol/L [5]: 56 to 88%; IC50 [6]: 729 ± 131 µM; inhibition at 1000 µM [6]: 60 to 84%
						CC(=O)NC[C@H]1CN(c2ccc(N3CCOCC3)c(F)c2)C(=O)O1 [A29, linezolid]										DDI index, inhibiting OAT3 [1]: ≥ 1.0
19 ± 8	2.16	64 to 88	189 ± 75	0.22	63 to 88	C[C@@H](c1ncncc1F)[C@](O)(Cn1cncn1)c1ccc(F)cc1F [A45, voriconazole]										IC50 [8]: 55 ± 6 µM; Inhibition DDI index, UGT2B15 ([8]; antibiotic as perpetrator, senkyunolide I (X5) as victim, (Cmax × fu-p × R)/IC50): 0.75; inhibition at 1000 μmol/L [8]: ≥ 90%
						C[C@@]12C[C@@]3(O)O[C@@H](O1)[C@]1(COC(=O)c4ccccc4)[C@H]3C[C@@]12O[C@@H]1O[C@H](CO)[C@@H](O)[C@H](O)[C@H]1O [X2, paeoniflorin]	82	18200	0.19	1.1	Renal excretion, GF-based	Not the substrate of P450 enzymes, UGTs, SULTs, OATP1B1/1B3, OAT1/3, OCT2, MATE1/2-K, MDR1, or BCRP	11.5	0.1	Poor	Unbound Cmax [9]: 15000 nM; fe-U (fraction of dose excreted unchanged into urine) [10]: 63%
						C[C@]12C[C@@H](O)[C@@H]3C[C@@]1(O[C@@H]1O[C@H](CO)[C@@H](O)[C@H](O)[C@H]1O)[C@@]3(COC(=O)c1ccccc1)C(=O)O2 [X4, albiflorin]	83	800	0.08	0.7	Renal excretion, GF-based	Not the substrate of P450 enzymes, UGTs, SULTs, OATP1B1/1B3, OAT1/3, OCT2, MATE1/2-K, MDR1, or BCRP	12.8	−0.9	Poor	fe-U (fraction of dose excreted unchanged into urine) [10]: 62%
						CCCCC1(O)OC(=O)C2=C1CCC=C2 (centres unmarked) [X7, senkyunolide G]	3	500	0.10	2.3	Hepatic glucuronidation	Poor UGT substrate	10.7	1.5	Good	Inhibition of OAT1 ([14]; 100 μmol/L): > 50%; IC50 ([14]; read-out: IC50, OAT1 [PAH], mean ± SD (n = 3)): 11 ± 3 µM; Inhibition of OAT2 ([15]; 100 μmol/L): > 50%; IC50 ([15]; read-out: IC50, OAT2 [prostaglandin F2α], mean ± SD (n = 3)): 51 ± 5 µM; mRNA-T/U ratio, CYP2B6 [16]: 4.0 to 9.6; mRNA-T/U ratio, CYP3A4 [17]: 4.0 to 9.6
	0.60					teicoplanin [A26]										IC50 ([6]; read-out: IC50, OAT2 [X8], mean ± SD (n = 3)): 64 ± 14 µM; IC50 ([3]; read-out: IC50, OATP1B3 [X10], mean ± SD (n = 3)): 8 ± 2 µM; Inhibition of OATP1B3 ([3]; test concentration 100 μmol/L): > 90%
